Assay [1] is described as follows: growth inhibition of yeast DHODH-expressing 3D7 parasites – SYBR Green, dry powder samples, dose response (AID 1159570).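 Further: parasite growth measured after 72 hours of compound exposure.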 Format: functional, cell-based.
A short description of assay [2]: P. falciparum Dd2 growth inhibitors, dose response, SYBR Green, cherry-picked samples (AID 1159567). The assay is classed as functional, cell-based.
Assay [3] is described as follows: toxicity to human HepG2 hepatoma cells – cell-based, plate reader, dry powder samples, cytotoxicity control, dose response (AID 1159569).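 Further: inhibitor potency with signal falling toward the positive control level.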 Format: functional.
The nature of assay [4]: Dd2 malaria parasite growth inhibition potency – SYBR Green, dry powder samples, dose response (AID 1159566).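 Further: potency for growth inhibition with lower SYBR green DNA signal.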 Format: functional, cell-based.
Assay [5] is described as follows: toxicity to human hepatoma HepG2 cells – cell-based, cherry-picked samples, cytotoxicity control, dose response (AID 1159577). Format: functional.
A short description of assay [6]: growth inhibition of PfATP4-mutant resistant parasites – NITD609-resistant line, SYBR Green, dry powder, dose response (AID 1159571).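 Further: parasites synchronized at ring stage by sorbitol before testing.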 The assay is classed as functional, cell-based.
Assay [7] deals with Sphingosine 1-phosphate receptor 2 (Homo sapiens, UniProt O95136). Description: Dose Response Cell Based Assay for Antagonists of the S1P2 Receptor. [Related pubchem assays: 856, 736 ]. Format: functional.
A further assay deals with Protein Tat (Human immunodeficiency virus type 1 group M subtype B (isolate HXB2)(HIV-1), UniProt P04608). Format: functional.
The target of a further assay is Large T antigen (Simian virus 40, UniProt P03070). The assay is classed as functional, Betapolyomavirus macacae.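 Further: Confirmatory-stage PubChem screen for compounds that inhibit SV40 T antigen.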
Assay [8] in a line: IGROV1 cell killing – plate reader, dry powder samples, PAX8 inhibitor project, dose response (AID 743043). The assay is classed as functional, cell-based. As to conditions: IGROV-1.
Assay [9] in a line: OVCAR-3 cell viability loss – plate reader, dry powder samples, PAX8 inhibitor project, dose response (AID 743044). The assay is classed as functional, cell-based.
The next assay has as its target Paired box protein Pax-8 (Homo sapiens, UniProt Q06710). The assay can be described thus: PAX8 transcriptional activity inhibition in RMG-I – RMG-I cells, luciferase, cherry-pick, dose response (AID 687027).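 Further: luciferase reporter driven by Pax8 target thyroperoxidase promoter measured by SteadyGlo luminescence.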 Format: functional, cell-based.
In assay [10] the target is Glucose-6-phosphate 1-dehydrogenase (Homo sapiens, UniProt P11413). The assay can be described thus: inhibition of Homo sapiens G6PD, dose series – biochemical, fluorescence, selectivity assay for P. falciparum G6PD inhibitor project, dose response (AID 504792). Format: functional.
The next assay has as its target Major prion protein (Homo sapiens, UniProt P04156). The assay is classed as functional, cell-based.
In a further assay the target is Genome polyprotein (Hepatitis C virus, UniProt Q2Q167). The assay can be described thus: disruption of hepatitis C core self-association – biochemical, TR-FRET, dose response (AID 2159).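 Further: blocks dimerization of HCV core protein measured by TR-FRET between tagged core106 pairs.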 On the set-up: species or system Hepacivirus hominis.
Assay [11] in a line: viability of uninfected HEp-2 cells – cell-based, HTS, cytotoxicity control for RSV inhibitor project, dose response (AID 2410). As to conditions: human respiratory syncytial virus. Format: functional.
Assay [12] can be described thus: cells.
For assay [13], the target named is T1, Oxysterols receptor LXR-beta (Homo sapiens, UniProt P55055).
T1 sequence (P55055 whole entry): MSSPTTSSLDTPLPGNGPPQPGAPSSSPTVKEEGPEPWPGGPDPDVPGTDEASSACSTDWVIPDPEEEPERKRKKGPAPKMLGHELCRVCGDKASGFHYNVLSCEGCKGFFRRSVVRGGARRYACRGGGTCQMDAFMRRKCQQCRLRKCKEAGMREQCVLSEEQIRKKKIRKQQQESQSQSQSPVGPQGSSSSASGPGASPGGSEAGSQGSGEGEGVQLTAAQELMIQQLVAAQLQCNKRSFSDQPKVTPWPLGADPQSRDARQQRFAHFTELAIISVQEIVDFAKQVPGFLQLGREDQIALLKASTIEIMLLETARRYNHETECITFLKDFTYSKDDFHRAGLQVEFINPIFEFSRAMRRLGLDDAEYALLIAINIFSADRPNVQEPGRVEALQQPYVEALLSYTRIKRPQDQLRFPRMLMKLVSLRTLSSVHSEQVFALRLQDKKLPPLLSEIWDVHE
The assay can be described thus: LXR agonists, Gal4 luciferase reporter, dose response, counter-screen for ssDAF-12 agonist project, cell-based, luminescence, HEK293, S. stercoralis campaign (AID 720737). Format: functional. As to conditions: read-out: IC50 (the source's name).

Assay [14] in a line: Luminescence-based cell-based high throughput dose response assay to identify activators of the DAF-12 from the parasite S. stercoralis (ssDAF-12). The assay is classed as functional.
The nature of assay [15]: cytotoxicity toward Colo320 cells – cell-based, CellTiter-Glo luminescence, IC50, dose response (AID 1117334). The assay is classed as functional. As to conditions: COLO 320.
A short description of assay [16]: RKO cell viability reduction, dose response, CellTiter-Glo luminescence (AID 1117322). The assay is classed as functional. A general note: ATP-based viability assays read luminescence as a measure of living cells.
A short description of assay [17]: cytotoxicity toward HT-29 cells – cell-based, CellTiter-Glo luminescence, IC50, dose response (AID 1117330). The assay is classed as functional.
Assay [18] is described as follows: rise of 2N DNA cells, HeLa – IC50, dose response (AID 1117349). Format: functional, cell-based.
The next assay has as its system SN12K1. The assay can be described thus: cells. Format: functional. The note with it: Homo sapiens.
Assay [19] in a line: cytotoxicity toward HCT116 cells – cell-based, CellTiter-Glo luminescence, IC50, dose response (AID 1117332). Format: functional. As to conditions: HCT-116.
The nature of assay [20]: SNU-C1 cell viability reduction, dose response, CellTiter-Glo luminescence (AID 1117323). The assay is classed as functional, cell-based.
Assay [21] in a line: HCT116 cell viability decrease, GSK3B pretreatment – CellTiter-Glo, IC50, dose response (AID 1117339). As to conditions: HCT-116. Format: functional.
Another assay deals with P388/ADR. The assay can be described thus: cells. As to conditions: Mus musculus. The assay is classed as functional.
A further assay concerns P388. Description: cells. Format: functional. As to conditions: Mus musculus.
A short description of assay [22]: Reduced DLD-1 viability, concentration-response, CellTiter-Glo luminescence (AID 1117352). The assay is classed as functional.
The nature of assay [23]: CellTiter-Glo luminescence survival assay, SW480 colon tumor line, concentration-response curve, half-maximal inhibitory concentration (AID 1117338). Format: functional.
Assay [24] in a line: rise of 4N DNA cells, HeLa – IC50, dose response (AID 1117351). The assay is classed as functional, cell-based.
Assay [25] can be described thus: HepG2 cell cytotoxicity, dose response, cytotoxicity control for non-replicating M. tuberculosis project (AID 489018). As to conditions: Mycobacterium tuberculosis. The assay is classed as functional.
The nature of assay [26]: THP-1 cell cytotoxicity, dose response, cytotoxicity control for non-replicating M. tuberculosis project (AID 489025). Format: functional.
A short description of assay [27]: reduced cellular PGC1a acetyl-lysine signal – cell-based, cherry-picked samples, dose response (AID 720514).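 Further: potency may reflect raised or lowered acetylation signal.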 The assay is classed as functional.
The nature of assay [28]: Vero E6 cell cytotoxicity, dose response, cytotoxicity control for non-replicating M. tuberculosis project, secondary assay (AID 492998). The assay is classed as functional, VeroE6. The note with it: Vero C1008.
The nature of assay [29]: cells. The assay is classed as functional.
The target of assay [30] is T2, Microphthalmia-associated transcription factor (Homo sapiens, UniProt O75030).
T2 sequence (O75030 whole entry): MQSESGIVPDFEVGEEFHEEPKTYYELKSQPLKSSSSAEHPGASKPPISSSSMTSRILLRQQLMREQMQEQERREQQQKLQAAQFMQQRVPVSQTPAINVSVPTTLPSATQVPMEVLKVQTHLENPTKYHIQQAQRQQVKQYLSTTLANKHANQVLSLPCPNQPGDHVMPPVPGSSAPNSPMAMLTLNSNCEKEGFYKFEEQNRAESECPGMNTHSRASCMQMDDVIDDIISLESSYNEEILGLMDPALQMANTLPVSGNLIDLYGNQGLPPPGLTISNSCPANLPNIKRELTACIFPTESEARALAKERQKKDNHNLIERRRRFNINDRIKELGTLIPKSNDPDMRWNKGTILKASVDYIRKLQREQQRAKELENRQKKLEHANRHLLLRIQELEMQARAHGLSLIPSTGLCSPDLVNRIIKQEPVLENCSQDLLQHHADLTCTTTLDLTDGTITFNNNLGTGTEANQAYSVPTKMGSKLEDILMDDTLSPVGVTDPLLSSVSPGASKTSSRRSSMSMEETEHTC
Description: reducers of TRPM1 reporter luminescence, concentration series – cell-based, SK-MEL-5, cherry-picked, set 3, MITF inhibitor project, dose response (AID 493073).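 Further: SK-MEL-5 melanoma cells with luciferase driven by the MITF target TRPM1 promoter.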 Format: functional.

For assay [31], the target named is Mitogen-activated protein kinase 10 (Homo sapiens, UniProt P53779). Description: Dose response biochemical screening assay for inhibitors of c-Jun N-Terminal Kinase 3 (JNK3). [Related pubchem assays: 746 ].

The source of these data is ChEMBL document CHEMBL1201862, “PubChem BioAssay data set” (2004).

Active and inactive are the calls of the source.

Turning to `COc1ccccc1NC(=O)N1CCCCN2[C@H](CO)[C@H](c3ccc(C#CC4CC4)cc3)[C@H]2C1`, the AC50 (commonly the midpoint of the concentration-response curve, whichever way the signal moves) is 1.74 µM (active) in assay [1]; 2.69 µM (active) in assay [2]; 18.4 µM (active) in assay [3]; 1.2 µM (active) in assay [4]; 20.3 µM (active) in assay [5]; 1.74 µM (active) in assay [6].
As to `O=C(c1sc2cc(C(F)(F)F)cnc2c1-c1ccccc1)N1CCOCC1`, in [7], the IC50 – broadly, the concentration that inhibits the measured activity by half – is reported as > 30 µM (not active).
As for `C/C=C/c1ccc([C@H]2[C@@H](CO)N(c3nc(C)c(C)s3)[C@@H]2CNCC(C)C)cc1`, the AC50 is 0.915 µM (active) in assay [1]; 0.861 µM (active) in assay [2]; 44.1 µM (active) in assay [3]; 0.227 µM (active) in assay [4]; > 39 µM (inactive) in [5]; 0.473 µM (active) in [6].
For `CC(NC(=O)Nc1ccc(O)cc1)(C(F)(F)F)C(F)(F)F`, the IC50 at Protein Tat was 44.8 µM (inconclusive); on Large T antigen, 14.3 µM (active).
Consider `C[C@@H]1CCCCO[C@H](CN(C)Cc2ccc(C(F)(F)F)cc2)[C@@H](C)CN([C@@H](C)CO)C(=O)c2cc(NC(=O)Cc3ccccc3)ccc2O1`, for which the AC50 was 64.6 µM (active) in assay [8], 35.2 µM (active) in [9] and 9.25 µM (active) at Paired box protein Pax-8.
As to `Brc1cc2[nH]cnc2c2ccccc12`, the IC50 was > 80 µM (inactive) in [10], 5.96 µM (active) at Major prion protein, > 49.8 µM (not active) against Genome polyprotein and > 138 µM (inactive) in the assay “cells [12]”. The CC50 (in general, the concentration at which the toxic effect on the cells reaches its halfway point) in [11] was 37.8 µM (active).
On to `CC(C)N(C)c1ncnc2c1ncn2[C@H]1CN(Cc2cccnc2)C[C@@H](CO)O1`, for which the EC50 in assay [13] is > 67.5 µM (inactive). The IC50 in [14] is > 67.5 µM (inactive).
With `OC[C@H]1O[C@@H](n2cnc3c(S)ncnc32)[C@H](O)[C@@H]1O` [THIOINOSINE], the IC50 in [15] is 1.06 µM (active); in assay [16], 0.0144 µM (active); in [17] it was 0.118 µM (active); in [18], > 10 µM (inactive); in assay [19] it was 0.0286 µM (active); in assay [20] it was 2.19 µM (active). Further, the IC50 is 0.504 µM (active) in assay [21], 0.063 µM (active) in [22], 0.0287 µM (active) in assay [23] and > 10 µM (inactive) in assay [24]. The figures for the GI50 with SN12K1, in the assay on P388/ADR and in the assay on P388 were 1780 µM (inactive), 1140 µM (inactive) and 1240 µM (inactive), respectively.
On to `Cn1nnnc1Sc1ncnc2scc(-c3ccc[nH]3)c12`, for which the results for the CC50 in assay [25], in assay [26] and in assay [28] were 15.8 µM (active), 14.8 µM (active) and 13 µM (active), respectively. Further, the AC50 in assay [27] is 7.84 µM (active); in assay [30], 7.32 µM (active); on Paired box protein Pax-8 it was 2.96 µM (active). For the same compound, the IC50 in the assay “cells [29]” was 15.2 µM (active).
Regarding `O=c1c2c(nc3n1CCCCC3)sc1c(O)cccc12`, in [31], the IC50 is recorded as 55.7 µM (not active).
